Common to all, as to type: functional
Assay [1] concerns Staphylococcus aureus. Put plainly: Antimicrobial activity against methicillin-resistant Staphylococcus aureus OIT971 by micro broth dilution or agar based method. A general note: Dilution methods test growth across graded concentrations, often in twofold steps.
The next assay concerns Escherichia coli. Description: Antimicrobial activity against Escherichia coli ATCC 25922 by micro broth dilution or agar based method. Conditions: Escherichia coli, ATCC 25922; read-out: MIC.
The subject of assay [2] is Staphylococcus aureus. Description: Antimicrobial activity against Staphylococcus aureus Smith by micro broth dilution or agar based method. Conditions: Staphylococcus aureus, Smith; read-out: MIC.
The test system of another assay is Enterococcus faecium. Put plainly: Antimicrobial activity against VanA expressing vancomycin-resistant Enterococcus faecium by micro broth dilution or agar based method. Particulars: Enterococcus faecium; read-out: MIC.
Another assay concerns Acinetobacter baumannii. Description: Antimicrobial activity against Acinetobacter baumannii IID876 by micro broth dilution or agar based method. Particulars: Acinetobacter baumannii, IID876; read-out: MIC.
A further assay concerns Pseudomonas aeruginosa. Description: Antimicrobial activity against Pseudomonas aeruginosa PAO1 by micro broth dilution or agar based method. Conditions: Pseudomonas aeruginosa, PAO1; read-out: MIC.
In another assay the test system is Streptococcus pneumoniae. Description: Antimicrobial activity against Streptococcus pneumoniae IID553 by micro broth dilution or agar based method. Conditions: Streptococcus pneumoniae, IID553; read-out: MIC.

Each structure is given as a SMILES string. ≈ marks a conversion by molar mass, not a printed value.

Consider `COc1ccc2ncc(F)c(C[C@H](O)C34CCC(NCc5ccc6c(n5)NC(=O)CO6)(CC3)CO4)c2n1`, for which the MIC (commonly the least concentration at which growth counts as inhibited) against Staphylococcus aureus [1] was 0.06 µg/mL (≈ 0.118 µM); with Escherichia coli, 2 µg/mL (≈ 3.93 µM); with Staphylococcus aureus [2], 0.02 µg/mL (≈ 0.0393 µM); in the assay with Enterococcus faecium it was 0.5 µg/mL (≈ 0.981 µM); with Acinetobacter baumannii it was 0.5 µg/mL (≈ 0.981 µM); in the assay on Pseudomonas aeruginosa it was 8 µg/mL (≈ 15.7 µM). Also, the MIC in the assay on Streptococcus pneumoniae worked out at 0.05 µg/mL (≈ 0.0981 µM).
As for `COc1cc2ncc(F)c(CCC34CCC(NCc5ccc6c(n5)NC(=O)CO6)(CC3)CO4)c2nc1OC`, the MIC worked out at 0.25 µg/mL (≈ 0.477 µM) against Staphylococcus aureus [1]; 8 µg/mL (≈ 15.3 µM) with Escherichia coli; 0.5 µg/mL (≈ 0.955 µM) with Staphylococcus aureus [2]; 8 µg/mL (≈ 15.3 µM) with Enterococcus faecium; 8 µg/mL (≈ 15.3 µM) in the assay on Acinetobacter baumannii; 8 µg/mL (≈ 15.3 µM) with Pseudomonas aeruginosa. The MIC in the assay on Streptococcus pneumoniae was found to be 8 µg/mL (≈ 15.3 µM).
Regarding `COc1ccc2ncc(Cl)c(CCC34CCC(NCc5ccc6c(n5)NC(=O)CO6)(CC3)CO4)c2n1`, the MIC with Staphylococcus aureus [1] came to 0.008 µg/mL (≈ 0.0157 µM); with Escherichia coli, 2 µg/mL (≈ 3.92 µM); with Staphylococcus aureus [2], 0.008 µg/mL (≈ 0.0157 µM); in the assay on Enterococcus faecium it was 1 µg/mL (≈ 1.96 µM); in the assay on Acinetobacter baumannii, 1 µg/mL (≈ 1.96 µM); in the assay with Pseudomonas aeruginosa it was 8 µg/mL (≈ 15.7 µM). Also, the MIC in the assay on Streptococcus pneumoniae was 0.25 µg/mL (≈ 0.49 µM).
As for `COc1ccc2ncc(C#N)c(CCC34CCC(NCc5ccc6c(n5)NC(=O)CO6)(CC3)CO4)c2n1`, the minimal inhibitory concentration (MIC) with Staphylococcus aureus [1] turned out to be 0.008 µg/mL (≈ 0.016 µM); in the assay on Escherichia coli, 2 µg/mL (≈ 4 µM); in the assay with Staphylococcus aureus [2], 0.016 µg/mL (≈ 0.032 µM); in the assay on Enterococcus faecium it was 0.5 µg/mL (≈ 0.999 µM); in the assay with Acinetobacter baumannii, 1 µg/mL (≈ 2 µM); with Pseudomonas aeruginosa, 4 µg/mL (≈ 7.99 µM). For the same molecule, the minimal inhibitory concentration (MIC) with Streptococcus pneumoniae was 0.125 µg/mL (≈ 0.25 µM).
`COc1ccc2ncc(OC)c(CCC34CCC(NCc5ccc6c(n5)NC(=O)CO6)(CC3)CO4)c2n1`: the MIC is 0.063 µg/mL (≈ 0.125 µM) against Staphylococcus aureus [1]; 16 µg/mL (≈ 31.6 µM) in the assay on Escherichia coli; 0.125 µg/mL (≈ 0.247 µM) in the assay on Staphylococcus aureus [2]; 4 µg/mL (≈ 7.91 µM) in the assay with Enterococcus faecium; 8 µg/mL (≈ 15.8 µM) in the assay with Acinetobacter baumannii; 64 µg/mL (≈ 127 µM) in the assay on Pseudomonas aeruginosa. Moreover, the MIC with Streptococcus pneumoniae came out at 4 µg/mL (≈ 7.91 µM).
As for `COc1ccc2ncc(O)c(CCC34CCC(NCc5ccc6c(n5)NC(=O)CO6)(CC3)CO4)c2n1`, the MIC stood at 0.031 µg/mL (≈ 0.0631 µM) against Staphylococcus aureus [1]; 4 µg/mL (≈ 8.14 µM) in the assay on Escherichia coli; 0.031 µg/mL (≈ 0.0631 µM) in the assay with Staphylococcus aureus [2]; 2 µg/mL (≈ 4.07 µM) with Enterococcus faecium; 2 µg/mL (≈ 4.07 µM) in the assay on Acinetobacter baumannii; 16 µg/mL (≈ 32.6 µM) in the assay on Pseudomonas aeruginosa. The MIC in the assay with Streptococcus pneumoniae is 0.5 µg/mL (≈ 1.02 µM).
With `O=C1COc2ccc(CNC34CCC(CCc5c(F)cnc6ccc(O)nc56)(CC3)OC4)nc2N1`, the MIC against Staphylococcus aureus [1] worked out at 0.25 µg/mL (≈ 0.521 µM); in the assay on Escherichia coli it was 4 µg/mL (≈ 8.34 µM); with Staphylococcus aureus [2] it was 0.5 µg/mL (≈ 1.04 µM); in the assay on Enterococcus faecium it was 8 µg/mL (≈ 16.7 µM); in the assay with Acinetobacter baumannii, 2 µg/mL (≈ 4.17 µM); with Pseudomonas aeruginosa it was 32 µg/mL (≈ 66.7 µM). For the same molecule, in the assay with Streptococcus pneumoniae, the MIC is 4 µg/mL (≈ 8.34 µM).
As to `O=C1COc2ccc(CNC34CCC(CCc5c(F)cnc6cccnc56)(CC3)OC4)nc2N1`, the MIC in the assay on Staphylococcus aureus [1] is 0.25 µg/mL (≈ 0.539 µM); with Escherichia coli it was 4 µg/mL (≈ 8.63 µM); in the assay with Staphylococcus aureus [2] it was 0.5 µg/mL (≈ 1.08 µM); with Enterococcus faecium it was 4 µg/mL (≈ 8.63 µM); in the assay with Acinetobacter baumannii, 1 µg/mL (≈ 2.16 µM); in the assay on Pseudomonas aeruginosa, 16 µg/mL (≈ 34.5 µM). Further, the MIC in the assay on Streptococcus pneumoniae was determined as 4 µg/mL (≈ 8.63 µM).
As to `Cc1ccc2ncc(F)c(CCC34CCC(NCc5ccc6c(n5)NC(=O)CO6)(CC3)CO4)c2n1`, the MIC in the assay with Staphylococcus aureus [1] was determined as 0.125 µg/mL (≈ 0.262 µM); in the assay on Escherichia coli, 8 µg/mL (≈ 16.8 µM); in the assay on Staphylococcus aureus [2], 0.25 µg/mL (≈ 0.524 µM); in the assay on Enterococcus faecium, 4 µg/mL (≈ 8.38 µM); in the assay on Acinetobacter baumannii, 2 µg/mL (≈ 4.19 µM); with Pseudomonas aeruginosa, 16 µg/mL (≈ 33.5 µM). Further, the MIC with Streptococcus pneumoniae worked out at 2 µg/mL (≈ 4.19 µM).
With `COC(=O)c1ccc2ncc(F)c(CCC34CCC(NCc5ccc6c(n5)NC(=O)CO6)(CC3)CO4)c2n1`, the MIC with Staphylococcus aureus [1] was 0.063 µg/mL (≈ 0.121 µM); in the assay with Escherichia coli it was 8 µg/mL (≈ 15.3 µM); in the assay with Staphylococcus aureus [2], 0.063 µg/mL (≈ 0.121 µM); in the assay on Enterococcus faecium it was 16 µg/mL (≈ 30.7 µM); in the assay with Acinetobacter baumannii it was 2 µg/mL (≈ 3.83 µM); with Pseudomonas aeruginosa, 16 µg/mL (≈ 30.7 µM). Besides, the MIC in the assay on Streptococcus pneumoniae amounted to 16 µg/mL (≈ 30.7 µM).
For the molecule `O=C1COc2ccc(CNC34CCC(CCc5c(F)cnc6ccc(C(=O)O)nc56)(CC3)OC4)nc2N1`, the MIC in the assay with Staphylococcus aureus [1], in the assay on Escherichia coli, with Staphylococcus aureus [2], with Enterococcus faecium, in the assay on Acinetobacter baumannii and with Pseudomonas aeruginosa was 16 µg/mL (≈ 31.5 µM) each time. Moreover, the MIC in the assay on Streptococcus pneumoniae turned out to be 16 µg/mL (≈ 31.5 µM).
Consider `N#Cc1ccc2ncc(F)c(CCC34CCC(NCc5ccc6c(n5)NC(=O)CO6)(CC3)CO4)c2n1`, for which the MIC against Staphylococcus aureus [1] came out at 0.063 µg/mL (≈ 0.129 µM); with Escherichia coli, 2 µg/mL (≈ 4.09 µM); with Staphylococcus aureus [2] it was 0.063 µg/mL (≈ 0.129 µM); with Enterococcus faecium, 2 µg/mL (≈ 4.09 µM); in the assay on Acinetobacter baumannii, 1 µg/mL (≈ 2.05 µM); in the assay on Pseudomonas aeruginosa it was 8 µg/mL (≈ 16.4 µM). Besides, the MIC with Streptococcus pneumoniae was 1 µg/mL (≈ 2.05 µM).
